From ChEMBL document CHEMBL3137667, “[Drug-induced liver injury; fourteenth updated edition of the bibliographic database of liver injuries and related drugs]” (Gastroenterol Clin Biol, 2004)

What was measured:
[1] = Comments (NB not yet translated). [column 'COMMENTAIRES' in source]; conditions: human
[2] = Times to onset, minimal and maximal, observed in the indexed observations. [column 'DELAI' in source]; conditions: human
[3] = Proposed mechanism(s) of liver damage. [column 'MEC' in source]; conditions: human
[4] = Highest frequency of acute liver toxicity observed during clinical trials, expressed as a percentage. [column '% AIGUE' in source]; conditions: human
[5] = human
[6] = human; remark: listed apart in the source
[7] = human; remark: listed apart in the source
[8] = human; remark: listed apart in the source
[9] = human; remark: listed apart in the source
[10] = human, serum
[11] = Highest frequency of moderate liver toxicity observed during clinical trials, expressed as a percentage. [column '% BIOL' in source]; conditions: human
[12] = human; remark: listed apart in the source
[13] = human, serum, 4383 h
[14] = human; remark: listed apart in the source
[15] = human; remark: listed apart in the source
[16] = human; remark: listed apart in the source
[17] = human, serum; remark: listed apart in the source
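For Hepatotoxicity (association with vascular disease) in this document: count of indexed literature references reporting vascular liver injury in humans, e.g. peliosis hepatitis, hepatic veno-occlusive disease or Budd-Chiari syndrome.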
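For Hepatotoxicity (benign tumour) in this document: value is a count of indexed literature references citing a benign tumour confirmed by histopathology.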
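For Hepatotoxicity (choleostasis) in this document: human cholestatic liver injury, shown by histopathology or by peak ALT or AST elevation over alkaline phosphatase ratio below 2, value counts indexed literature reports.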
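For Hepatotoxicity (chronic liver disease) in this document: chronic liver injury confirmed by histopathology or persistently raised serum aminotransferase activity beyond 6 months, value given as the count of indexed literature references.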
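For Hepatotoxicity (cirrhosis) in this document: value is a count of indexed literature references reporting cirrhosis confirmed by histopathology.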
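For Hepatotoxicity (cytolytic) in this document: human cytolytic liver injury, shown by histopathology or by a ratio above 5 of peak ALT or AST elevation to alkaline phosphatase elevation, value counts indexed references.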
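For Hepatotoxicity (granulomatous hepatitis) in this document: value is a count of indexed literature references reporting granulomatous liver disease confirmed by histopathology.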
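For Hepatotoxicity (malignant tumour) in this document: malignant tumour confirmed by histopathology, value gives the count of indexed literature references reporting it.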
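For Hepatotoxicity (severe hepatitis) in this document: human clinical data: severe hepatitis, meaning potentially life-threatening liver failure or clinically observed cases, the value counts how many indexed literature references report it.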
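For Hepatotoxicity (steatosis) in this document: steatosis confirmed by histopathology, value is the count of indexed references.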

## CC(=O)Nc1ccc(OCC(O)CNC(C)C)cc1 (stereo not given) [PRACTOLOL]
[1]
  Hepatotoxicity (comment): AC_ANTI-N/-M #CBP
[2]
  Hepatotoxicity (time to onset): 16 months - 4 years
[3]
  Hepatotoxicity (mechanism): Allergic
[4]
  Hepatotoxicity (acute): 0%
[5]
  Hepatotoxicity (steatosis): 0
[6]
  Hepatotoxicity (cytolytic): 0
[7]
  Hepatotoxicity (granulomatous hepatitis): 0
[8]
  Hepatotoxicity (malignant tumour): 0
[9]
  Hepatotoxicity (benign tumour): 0
[10]
  Hepatotoxicity (acute): 0
[11]
  Hepatotoxicity (moderate): 0%
[12]
  Hepatotoxicity (association with vascular disease): 0
[13]
  Hepatotoxicity (chronic liver disease): 0
[14]
  Hepatotoxicity (severe hepatitis): 0
[15]
  Hepatotoxicity (choleostasis): 0
[16]
  Hepatotoxicity (cirrhosis): 1
[17]
  Hepatotoxicity (moderate): 0

## C[C@]12C=CC(=O)C=C1CC[C@@H]1[C@@H]2C(=O)C[C@@]2(C)[C@H]1CC[C@]2(O)C(=O)CO [PREDNISONE]
[1]
  Hepatotoxicity (comment): AGGRAVATION/REACTIVATION_HVB HNF LITHIASE
[2]
  Hepatotoxicity (time to onset): 10 months
[3]
  Hepatotoxicity (mechanism): Dose-dependant
[4]
  Hepatotoxicity (acute): 0%
[5]
  Hepatotoxicity (steatosis): 0
[6]
  Hepatotoxicity (cytolytic): 0
[7]
  Hepatotoxicity (granulomatous hepatitis): 0
[8]
  Hepatotoxicity (malignant tumour): 0
[9]
  Hepatotoxicity (benign tumour): 1
[10]
  Hepatotoxicity (acute): 0
[11]
  Hepatotoxicity (moderate): 80%
[12]
  Hepatotoxicity (association with vascular disease): 0
[13]
  Hepatotoxicity (chronic liver disease): 0
[14]
  Hepatotoxicity (severe hepatitis): 1
[15]
  Hepatotoxicity (choleostasis): 0
[16]
  Hepatotoxicity (cirrhosis): 0
[17]
  Hepatotoxicity (moderate): 1

## CN(C)CCCN1c2ccccc2Sc2ccccc21 [PROMAZINE]
[1]
  Hepatotoxicity (comment): RC/CHLORPROMAZINE
[2]
  Hepatotoxicity (time to onset): 2 days - 2 months
[3]
  Hepatotoxicity (mechanism): Allergic
[4]
  Hepatotoxicity (acute): 0%
[5]
  Hepatotoxicity (steatosis): 0
[6]
  Hepatotoxicity (cytolytic): 0
[7]
  Hepatotoxicity (granulomatous hepatitis): 0
[8]
  Hepatotoxicity (malignant tumour): 0
[9]
  Hepatotoxicity (benign tumour): 0
[10]
  Hepatotoxicity (acute): 6
[11]
  Hepatotoxicity (moderate): 0%
[12]
  Hepatotoxicity (association with vascular disease): 0
[13]
  Hepatotoxicity (chronic liver disease): 0
[14]
  Hepatotoxicity (severe hepatitis): 0
[15]
  Hepatotoxicity (choleostasis): 6
[16]
  Hepatotoxicity (cirrhosis): 0
[17]
  Hepatotoxicity (moderate): 1

## CC(C)NCC(O)COc1cccc2ccccc12 (stereo not given) [PROPRANOLOL]
[1]
  Hepatotoxicity (comment): CHOLANGIOLITE ENCEPHALOPATHIE
[2]
  Hepatotoxicity (time to onset): 1 month - 9 months
[3]
  Hepatotoxicity (mechanism): Allergic
[4]
  Hepatotoxicity (acute): 0%
[5]
  Hepatotoxicity (steatosis): 0
[6]
  Hepatotoxicity (cytolytic): 4
[7]
  Hepatotoxicity (granulomatous hepatitis): 0
[8]
  Hepatotoxicity (malignant tumour): 0
[9]
  Hepatotoxicity (benign tumour): 0
[10]
  Hepatotoxicity (acute): 5
[11]
  Hepatotoxicity (moderate): 10%
[12]
  Hepatotoxicity (association with vascular disease): 0
[13]
  Hepatotoxicity (chronic liver disease): 0
[14]
  Hepatotoxicity (severe hepatitis): 0
[15]
  Hepatotoxicity (choleostasis): 3
[16]
  Hepatotoxicity (cirrhosis): 0
[17]
  Hepatotoxicity (moderate): 5

## CCCc1cc(C(N)=S)ccn1 [PROTIONAMIDE]
[1]
  Hepatotoxicity (comment): I/PILULE
[2]
  Hepatotoxicity (time to onset): 3 months - 1 year
[3]
  Hepatotoxicity (mechanism): Dose-dependant
[4]
  Hepatotoxicity (acute): 2.5%
[5]
  Hepatotoxicity (steatosis): 0
[6]
  Hepatotoxicity (cytolytic): 4
[7]
  Hepatotoxicity (granulomatous hepatitis): 0
[8]
  Hepatotoxicity (malignant tumour): 0
[9]
  Hepatotoxicity (benign tumour): 0
[10]
  Hepatotoxicity (acute): 7
[11]
  Hepatotoxicity (moderate): 13%
[12]
  Hepatotoxicity (association with vascular disease): 0
[13]
  Hepatotoxicity (chronic liver disease): 0
[14]
  Hepatotoxicity (severe hepatitis): 2
[15]
  Hepatotoxicity (choleostasis): 0
[16]
  Hepatotoxicity (cirrhosis): 0
[17]
  Hepatotoxicity (moderate): 8

## CCc1nc(N)nc(N)c1-c1ccc(Cl)cc1 [PYRIMETHAMINE]
[1]
  Hepatotoxicity (comment): I/LORAZEPAM
[2]
  Hepatotoxicity (time to onset): 4 hours - 4 months
[3]
  Hepatotoxicity (mechanism): Dose-dependant
[4]
  Hepatotoxicity (acute): 0%
[5]
  Hepatotoxicity (steatosis): 1
[6]
  Hepatotoxicity (cytolytic): 0
[7]
  Hepatotoxicity (granulomatous hepatitis): 1
[8]
  Hepatotoxicity (malignant tumour): 0
[9]
  Hepatotoxicity (benign tumour): 0
[10]
  Hepatotoxicity (acute): 1
[11]
  Hepatotoxicity (moderate): 28.6%
[12]
  Hepatotoxicity (association with vascular disease): 0
[13]
  Hepatotoxicity (chronic liver disease): 0
[14]
  Hepatotoxicity (severe hepatitis): 0
[15]
  Hepatotoxicity (choleostasis): 1
[16]
  Hepatotoxicity (cirrhosis): 0
[17]
  Hepatotoxicity (moderate): 8

## CN(CCOc1ccc(CC2SC(=O)NC2=O)cc1)c1ccccn1 (stereo not given) [ROSIGLITAZONE]
[1]
  Hepatotoxicity (comment): CHOLANGITE
[2]
  Hepatotoxicity (time to onset): 1 week - 4 years
[3]
  Hepatotoxicity (mechanism): Allergic
[4]
  Hepatotoxicity (acute): 0%
[5]
  Hepatotoxicity (steatosis): 0
[6]
  Hepatotoxicity (cytolytic): 7
[7]
  Hepatotoxicity (granulomatous hepatitis): 3
[8]
  Hepatotoxicity (malignant tumour): 0
[9]
  Hepatotoxicity (benign tumour): 0
[10]
  Hepatotoxicity (acute): 10
[11]
  Hepatotoxicity (moderate): 0.2%
[12]
  Hepatotoxicity (association with vascular disease): 0
[13]
  Hepatotoxicity (chronic liver disease): 1
[14]
  Hepatotoxicity (severe hepatitis): 5
[15]
  Hepatotoxicity (choleostasis): 2
[16]
  Hepatotoxicity (cirrhosis): 0
[17]
  Hepatotoxicity (moderate): 8

## Nc1ccc(S(=O)(=O)Nc2ncccn2)cc1 [SULFADIAZINE]
[1]
  Hepatotoxicity (comment): CHOLESTASE_PROLONGEE
[2]
  Hepatotoxicity (time to onset): 1 week - 2 months
[3]; Liver
  Hepatotoxicity (mechanism): Allergic, Reactive metabolite
[4]; Liver
  Hepatotoxicity (acute): 0%
[5]
  Hepatotoxicity (steatosis): 0
[6]; Liver
  Hepatotoxicity (cytolytic): 3
[7]; Liver
  Hepatotoxicity (granulomatous hepatitis): 0
[8]
  Hepatotoxicity (malignant tumour): 0
[9]
  Hepatotoxicity (benign tumour): 0
[10]
  Hepatotoxicity (acute): 8
[11]; Liver
  Hepatotoxicity (moderate): 2.7%
[12]
  Hepatotoxicity (association with vascular disease): 0
[13]
  Hepatotoxicity (chronic liver disease): 0
[14]; Liver
  Hepatotoxicity (severe hepatitis): 1
[15]; Liver
  Hepatotoxicity (choleostasis): 1
[16]
  Hepatotoxicity (cirrhosis): 0
[17]
  Hepatotoxicity (moderate): 2

## Cc1noc(NS(=O)(=O)c2ccc(N)cc2)c1C [SULFISOXAZOLE]
[1]
  Hepatotoxicity (comment): CHOLANGITE RC/COTRIMOXAZOLE
[2]
  Hepatotoxicity (time to onset): 2 days - 6 days
[3]
  Hepatotoxicity (mechanism): Allergic
[4]; Liver
  Hepatotoxicity (acute): 0%
[5]
  Hepatotoxicity (steatosis): 0
[6]
  Hepatotoxicity (cytolytic): 1
[7]
  Hepatotoxicity (granulomatous hepatitis): 0
[8]
  Hepatotoxicity (malignant tumour): 0
[9]
  Hepatotoxicity (benign tumour): 0
[10]
  Hepatotoxicity (acute): 4
[11]; Liver
  Hepatotoxicity (moderate): 0%
[12]
  Hepatotoxicity (association with vascular disease): 0
[13]
  Hepatotoxicity (chronic liver disease): 0
[14]; Liver
  Hepatotoxicity (severe hepatitis): 1
[15]
  Hepatotoxicity (choleostasis): 2
[16]
  Hepatotoxicity (cirrhosis): 0
[17]
  Hepatotoxicity (moderate): 0

## CC(S)C(=O)NCC(=O)O (stereo not given) [TIOPRONIN]
[1]
  Hepatotoxicity (comment): CHOLESTASE_PROLONGEE #CBP
[2]
  Hepatotoxicity (time to onset): 19 days - 2 years
[3]
  Hepatotoxicity (mechanism): Allergic
[4]
  Hepatotoxicity (acute): 2.1%
[5]
  Hepatotoxicity (steatosis): 1
[6]
  Hepatotoxicity (cytolytic): 1
[7]
  Hepatotoxicity (granulomatous hepatitis): 0
[8]
  Hepatotoxicity (malignant tumour): 0
[9]
  Hepatotoxicity (benign tumour): 0
[10]
  Hepatotoxicity (acute): 10
[11]
  Hepatotoxicity (moderate): 0%
[12]
  Hepatotoxicity (association with vascular disease): 0
[13]
  Hepatotoxicity (chronic liver disease): 3
[14]
  Hepatotoxicity (severe hepatitis): 0
[15]
  Hepatotoxicity (choleostasis): 8
[16]
  Hepatotoxicity (cirrhosis): 0
[17]
  Hepatotoxicity (moderate): 1
